Test results taken from PMC7997397, ““Bottom-Up” Strategy for the Identification of Novel Soybean Peptides with Angiotensin-Converting Enzyme Inhibitory Activity” (Journal of Agricultural and Food Chemistry, 2020).
Read-outs that look alike come from different tables or passages of the source. Blank lines part the entries; values can stand above or below the compound they belong to. Ends that are not written are not given here. Peptide text beside a SMILES is read from it.

What was measured:
ACE = conditions: read-out: IC50 ACE inhibition in vitro, cited from earlier work
Source text: It is well-recognized that soybean proteins contain many bioactive peptides exerting multiple health benefits, that is, hypocholesterolemic, antidiabetic, antitumor, and hypotensive activity. […] Moreover, after the hydrolysis of soybean proteins with pepsin, five peptides have been identified showing in vitro and in vivo hypotensive activity. […] Their bl ...

[1] = biological target: T1, ACE in human kidney HK-2 cells (Homo sapiens, UniProt P12821); experiment: ACE activity cell-based assay (in situ) in HK-2 cells; conditions: for IC50: renal HK-2 cells 5 × 10^4/well, 0.1–250 μM, 24 h, 37 °C, ACE activity in cell lysates with fluorescent substrate, mean ± s.d. of three independent experiments in triplicate
T1 construct: endogenous in cells; host or cells: HK-2 cells (ATCC)
T1 sequence (P12821 30-1306): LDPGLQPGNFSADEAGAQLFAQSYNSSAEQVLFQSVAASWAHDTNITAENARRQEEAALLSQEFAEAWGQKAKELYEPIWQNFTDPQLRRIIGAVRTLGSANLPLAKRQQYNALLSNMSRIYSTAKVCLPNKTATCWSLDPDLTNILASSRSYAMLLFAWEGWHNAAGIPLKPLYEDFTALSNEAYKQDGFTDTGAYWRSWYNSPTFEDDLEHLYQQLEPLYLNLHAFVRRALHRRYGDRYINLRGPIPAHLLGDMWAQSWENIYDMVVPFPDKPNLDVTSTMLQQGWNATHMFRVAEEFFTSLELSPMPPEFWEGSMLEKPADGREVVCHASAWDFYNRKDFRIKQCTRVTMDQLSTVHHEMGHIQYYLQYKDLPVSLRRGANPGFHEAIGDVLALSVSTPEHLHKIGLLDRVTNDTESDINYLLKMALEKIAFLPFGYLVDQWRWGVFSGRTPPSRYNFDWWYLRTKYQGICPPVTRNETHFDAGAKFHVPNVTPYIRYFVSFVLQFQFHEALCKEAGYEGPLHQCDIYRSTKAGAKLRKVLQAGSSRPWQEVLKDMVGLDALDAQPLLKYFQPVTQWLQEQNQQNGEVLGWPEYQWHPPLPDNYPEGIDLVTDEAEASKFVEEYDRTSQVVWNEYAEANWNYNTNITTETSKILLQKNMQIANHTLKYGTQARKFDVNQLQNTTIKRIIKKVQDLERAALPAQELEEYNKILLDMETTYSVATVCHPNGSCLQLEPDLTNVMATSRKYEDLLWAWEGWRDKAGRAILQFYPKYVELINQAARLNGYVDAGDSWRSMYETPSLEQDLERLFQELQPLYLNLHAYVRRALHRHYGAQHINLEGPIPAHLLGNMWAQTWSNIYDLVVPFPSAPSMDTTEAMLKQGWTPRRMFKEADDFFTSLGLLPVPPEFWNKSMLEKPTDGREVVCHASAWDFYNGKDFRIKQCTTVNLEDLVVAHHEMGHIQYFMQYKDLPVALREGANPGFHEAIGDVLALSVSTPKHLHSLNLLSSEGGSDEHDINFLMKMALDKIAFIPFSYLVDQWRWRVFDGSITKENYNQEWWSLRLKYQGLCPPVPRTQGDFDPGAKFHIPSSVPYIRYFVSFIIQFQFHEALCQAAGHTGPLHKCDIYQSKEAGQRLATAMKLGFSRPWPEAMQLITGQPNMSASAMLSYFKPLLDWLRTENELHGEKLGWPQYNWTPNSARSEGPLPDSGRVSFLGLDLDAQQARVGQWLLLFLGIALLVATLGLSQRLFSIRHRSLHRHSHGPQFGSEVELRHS
Procedure: (§1) Soy1 and LPYP were tested on Caco-2 and HK2 cells (5 × 10^4/well in black 96-well plates) in 0.1–250.0 μM concentration ranges or vehicle in growth medium for 24 h at 37 °C. For a 2D cell culture on RADA16-Soy1 and RADA-LPYP hydrogels, Caco-2 cells were seeded on the surface of the abovementioned hydrogels at a density of 5 × 10^4/well. On the next day, the ACE inhibitory activity was measured using an ACE1 Activity Assay Kit (BioVision, Milpitas Blvd., Milpitas, CA, USA) following the manufacturer’s protocol. See the “Supporting Information” for further details on Acer activity cell-based assay.
(§2) In particular, Caco-2 and HK-2 cells (5 × 10^4/well) were treated with Soy1 and LPYP (0.1–250 μM) overnight. The following day, cells were lysated and the ACE activity was measured directly in the cell lysates using a fluorescent ACE substrate; in this assay, the fluorescent signal is proportional to the enzyme activity.
(§3) Figure 2 In situ evaluation of the ACE activity. […] Data represent the mean ± s.d. of three independent experiments performed in triplicate. […]
absence of carryover effects. The peptides were identified by comparing their retention times, MS profiles, and MS/MS fragmentation spectra with those of authentic standards.
ACE activity cell-based assay. […] The next day, The ACE inhibitory activity was measured using the ACE1 Activity Assay Kit (Biovision, Milpitas Blvd., Milpitias, CA, USA) following the manufacture’s protocol.
Briefly, cells were scraped in 30.0 μL of ice-cold ACE lysis buffer and transferred in an ice-cold microcentrifuge tube. […] Total proteins were quantified by Bradford method, and 2.0 μg of proteins (the equivalent of 2 μL) were added to 18.0 μL of ACE lysis buffer in each well in a black 96-well plates with clear bottoms. […] Then, 20.0 μL of 4% of ACE substrate (in assay buffer) was added in each well except the background one and the fluorescence (Ex/Em 330/430 nm) was measured in a kinetic mode for 10 min at 37 °C using […]

[2] = biological target: T2, ACE in human intestinal Caco-2 cells (Homo sapiens, UniProt P12821); experiment: ACE activity cell-based assay (in situ) in Caco-2 cells; conditions: nondifferentiated Caco-2 cells 5 × 10^4/well, 0.1–250 μM, 24 h, 37 °C; ACE activity in cell lysates with fluorescent substrate; mean ± s.d. of three independent experiments in triplicate
T2 construct: endogenous in cells; host or cells: Caco-2 cells (INSERM, Paris)
T2 sequence (P12821 30-1306): as above
Procedure: as §1, §2, §3
absence of carryover effects. […]
ACE activity cell-based assay. […] The next day, The ACE inhibitory activity was measured using the ACE1 Activity Assay Kit (Biovision, Milpitas Blvd., Milpitias, CA, USA) following the manufacture’s protocol. […]

[3] = In vitro gastrointestinal digestion with pepsin and pancreatin; type: in vitro ADME; conditions: peptide 100 μM; pepsin 1:100 enzyme-to-substrate, pH 2.0, 37 °C, 90 min, then pancreatin 1:50, pH 7.2, 37 °C, 150 min; HPLC-Chip ion trap MS; mean ± s.d. of three independent experiments in triplicate; read-out: degraded after codigestion with pepsin and pancreatin vs undigested peptide
Procedure: Pepsin solution (4 mg/mL in NaCl) was added to Soy1 and LPYP (100 μM) at a 1:100 enzyme-to-substrate ratio (pH 2.0). The digestion was conducted at 37 °C for 90 min under continuous stirring, and then, the pH was adjusted to 7.2 with 1 M NaOH in order to inactivate the enzyme. Then, pancreatin (4 mg/mL in H2O) was added at a 1:50 enzyme-to-substrate ratio. After digestion, at 37 °C for 150 min, the enzyme was inactivated by heating at 95 °C for 10 min. Further details regarding the analysis are available in the “Supporting Information”.
Their metabolic propensity to be degraded by peptidases, which are physiologically active along the entire gastrointestinal tract, might dramatically influence the bioactivity of food peptides. The literature provides many studies dealing with the assessment of food bioactive peptide stability to the simulated gastric digestion.[22],[23] In order to in-depth characterize the multifunctional behavior of Soy1 and LPYP, their stability toward the in vitro gastric digestion was assessed using pepsin and pancreatin.
Figure 1 In vitro gastrointestinal digestion. […]
In vitro digestion of Soy1 and LPYP. […] Soy1 and LPYP samples undigested and after digestion were analyzed on a SL IT mass spectrometer interfaced with a HPLC- Chip Cube source (Agilent Technologies, Palo Alto, CA, USA). […] A blank was analyzed between samples to ensure

[4] = tested on: differentiated Caco-2 cells; conditions: 2 h of incubation in the apical side of monolayers; cited from earlier work
Source text: Mature enterocytes represent the first physiological barrier that bioactive food peptides encounter after ingestion; therefore, their absorption is a dynamic proces ...

[5] = soybean peptides reported in the literature
[6] = peptides from pepsin hydrolysis of soybean proteins

Compound: SPYP [peptide from soybean glycinin hydrolysed by Monascus purpureus acid proteinase]
IC50 (ACE; [5]): 850 µM

Compound: LAIPVNKP
IC50 (ACE; [5]): 70 µM

Compound: YLAGNQ [peptide from pepsin hydrolysis of soybean proteins]
IC50 (ACE; [6]): 14 µM

Compound: LPHF
IC50 (ACE; [5]): 670 µM

Compound: VMDKPQG [peptide from pepsin hydrolysis of soybean proteins]
IC50 (ACE; [6]): 39 µM

Compound: IYLL [peptide from pepsin hydrolysis of soybean proteins]
IC50 (ACE; [6]): 42 µM

IC50 [1]: 6.8 ± 0.2 µM | IC50 [2]: 5 ± 0.28 µM | metabolised at 4 h, 100 μM [3]: 28.5 ± 1.4%
Compound: CC(C)C[C@H](N)C(=O)N1CCC[C@H]1C(=O)N[C@@H](Cc1ccc(O)cc1)C(=O)N1CCC[C@H]1C(=O)O [LPYP] (H-LPYP-OH)

Compound: FFL
IC50 (ACE; [6]): 37 µM

IC50 [1]: 6 ± 0.35 µM | IC50 [2]: 14.7 ± 0.28 µM | metabolised at 4 h, 100 μM [3]: 27.7 ± 0.3%
Compound: IAVPTGVA [Soy1, IAVPTGVA]
relative ACE inhibitory activity, renal (HK-2) vs intestinal (Caco-2) level ([1]; comparison of IC50 values in HK-2 and Caco-2 cells): twofold more active at the renal level than at the intestinal level | absorption by differentiated Caco-2 cells [4]: better absorbed than LPYP
